Data from PubChem BioAssay AID608 (Sanford-Burnham Center for Chemical Genomics, 2007).
Active and inactive are the calls of the source. How the calls were made is not given here.

What follows are molecules tested against Peptidyl-prolyl cis-trans isomerase FKBP1A (Homo sapiens) (UniProt P62942) (assay: FKBP12 binders, biophysical, NMR detection (AID 608)). Settings: NMR binding, purified FKBP12.
Sequence of Peptidyl-prolyl cis-trans isomerase FKBP1A (Homo sapiens) (P62942 whole entry, looked up): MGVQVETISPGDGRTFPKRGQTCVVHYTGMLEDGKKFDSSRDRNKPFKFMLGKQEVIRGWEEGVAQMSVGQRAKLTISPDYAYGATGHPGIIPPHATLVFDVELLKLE
With `Cc1nc2nc(-c3ccco3)nn2c(C)c1Cl` the Kd was > 4 mM (inactive).
`NS(=O)(=O)c1ccc(NC(=O)C2CC2)cc1` was tested, and the Kd was > 4 mM (inactive).
In the case of `Cc1cc(OCC(=O)N2CCOCC2)cc(C)c1Cl`, the Kd is reported as “inactive”.
`O=C1NC(=O)C2C3C=CC(O3)C12` (centres undefined) was tested, and the Kd was > 4 mM (inactive).
Molecule `O=C(CSc1nnc2ccccn12)N1CCOCC1` has a Kd of 0.221 mM.
`Cc1nc2ccc(NC(=O)N3CCSCC3)cc2s1` was tested, and the Kd was > 4 mM (inactive).
With `Cc1c(CCO)c(=O)n2c([nH]c3ccccc32)c1C#N` the Kd was > 4 mM (inactive).
With `S=c1[nH]c2cccnc2[nH]1` the Kd was > 4 mM (inactive).
In the case of `CC(C)=CCc1c2c(c(O)c3c(=O)c(O)c(-c4ccccc4)oc13)C=CC(C)(C)O2`, the Kd is reported as > 4 mM (inactive).
In the case of `O=C(/C=C1\SC(=O)NC1=O)NCc1ccccc1`, the Kd is reported as > 4 mM (inactive).
For `COc1c(F)c(F)c(-c2csc(N)n2)c(F)c1F`, the Kd was > 4 mM (inactive).
`COc1c2c(cc3occ(-c4ccc5c(c4)OCO5)c(=O)c13)OC(C)(C)C=C2` was tested, and the Kd was > 4 mM (inactive).
In the case of `CCOc1cc(S(=O)(=O)n2nc(C)cc2C)ccc1F`, the Kd is reported as > 4 mM (inactive).
For `CN1CCCC1C(=O)O` (centres undefined), the Kd was > 4 mM (inactive).
In the case of `COc1ccccc1NC(=O)NC(N)=O`, the Kd is reported as > 4 mM (inactive).
With `O=C1C2C3C=CC(C3)C2C(=O)N1CCO` (centres undefined) the Kd was > 4 mM (inactive).
`COc1ccc(C2CC(=O)c3ccc(OC)cc3O2)cc1` (centres undefined) was tested, and the Kd was > 4 mM (inactive).
In the case of `NC(=O)C1CCN(C(=O)Nc2ccccc2)CC1`, the Kd is reported as > 4 mM (inactive).
`CC1CN(Cc2ccccn2)CCC1=O` (centres undefined) was tested, and the Kd was > 4 mM (inactive).
For `CC(=O)c1cc2c(s1)SCC(=O)N2`, the Kd was > 4 mM (inactive).
In the case of `CCOC(=O)CSc1nnc(C)c(=O)[nH]1`, the Kd is reported as > 4 mM (inactive).
In the case of `CCOC(=O)c1cnc2n(c1=O)CCS2`, the Kd is reported as > 4 mM (inactive).
`CC1(C)Cc2nc(N3CCOCC3)c(C#N)cc2CO1` was tested, and the Kd was > 4 mM (inactive).
With `CNC(=O)c1cc(S(=O)(=O)N(C)C)ccc1Cl` the Kd was > 4 mM (inactive).
With `O=C(/C=C(\O)c1ccccc1)c1ccccc1O` the Kd was > 4 mM (inactive).
In the case of `CC(=O)O[C@H]1CC[C@@]2(C)C(C[C@@H](OC(C)=O)[C@@]3(C)C4=CC(=O)O[C@@H](c5ccoc5)[C@]4(C)CCC23)C1(C)C` (some centres undefined), the Kd is reported as > 4 mM (inactive).
With `CN1CCN(c2cc(=O)n(C)c(=O)[nH]2)CC1` the Kd was > 4 mM (inactive).
For `CCOC(=O)c1c(C)nc2ccccn12`, the Kd was > 4 mM (inactive).
`CC1=CC(C)C(C(=O)O)C(C(=O)N2CCN(C)CC2)C1` (centres undefined) was tested, and the Kd was > 4 mM (inactive).
`CCOC(=O)CNC(=O)CSc1nnc(C)c(=O)[nH]1` was tested, and the Kd was > 4 mM (inactive).
`NCc1c[nH]c2ccccc12` was tested, and the Kd was > 4 mM (inactive).
`CN(Cc1nc2ccccc2n1C)S(C)(=O)=O` was tested, and the Kd was > 4 mM (inactive).
With `O=C(CSc1ncccn1)NCc1ccco1` the Kd was > 4 mM (inactive).
`O=[N+]([O-])c1cccc(-c2c[n+](=O)c3c(n2[O-])CCC3)c1` was tested, and the Kd was > 4 mM (inactive).
With `Nc1ncnc(NCCO)c1[N+](=O)[O-]` the Kd was > 4 mM (inactive).
For `CCC(C)C(=O)O[C@@H]1C[C@@]2(C)[C@H](c3ccoc3)OC(=O)CC23OC2(C)O[C@]14[C@]1(C)[C@@H](CC(=O)OC)C5(C)CC1(O)[C@](O)(C5OC(=O)C1(C)OC1C)[C@@H](OC(C)=O)[C@]34O2` (some centres undefined), the Kd was > 4 mM (inactive).
`O=C1NC(=O)C(=Cc2cccs2)C(=O)N1` was tested, and the Kd was > 4 mM (inactive).
`O=c1ccn(Cc2ccccc2)c(=O)n1Cc1ccccc1` was tested, and the Kd was > 4 mM (inactive).
`COC(=O)C[C@H]1C2(C)CC34OC5(C)O[C@@]6([C@H](OC(C)=O)C(OC(C)=O)[C@]7(C)C(/C(=C(/O)C(C)C)C(=O)O[C@H]7c7ccoc7)[C@@]6(O5)[C@H](OC(C)=O)[C@@]3(O)C2OC(=O)C(C)C)[C@]14C` (some centres undefined) was tested, and the Kd was > 4 mM (inactive).
For `Cn1cnc2nc3n(c2c1=O)CCC3`, the Kd was > 4 mM (inactive).
For `CN1C2CC3C[C@H]1C(O3)C2O` (some centres undefined), the Kd was > 4 mM (inactive).
`Cc1c(C)n2c(SCC(N)=O)nnc2[nH]c1=O` was tested, and the Kd was > 4 mM (inactive).
With `O=c1c[n+]([O-])c2ccccc2n1OCc1ccccn1` the Kd was > 4 mM (inactive).
With `COc1ccc2c(c1)OC/C(=C/c1ccc(OC)c(OC)c1)C2=O` the Kd was > 4 mM (inactive).
`CC(=O)Nc1ccc(Nc2nnc(C)c(=O)[nH]2)cc1` was tested, and the Kd was > 4 mM (inactive).
`Cc1ccc(CN2CCNC(=O)C2CC(=O)O)o1` (centres undefined) was tested, and the Kd was > 4 mM (inactive).
In the case of `CC[C@H]1CN2CCc3cc(OC)c(OC)cc3C2C[C@@H]1CC1NCCc2cc(OC)c(OC)cc21` (some centres undefined), the Kd is reported as > 4 mM (inactive).
`CC(=O)O[C@@H]1CC2C(C)(CC[C@H](O)C2(C)C)C2CC[C@]3(C)C(=CC(=O)O[C@H]3c3ccoc3)C21C` (some centres undefined) was tested, and the Kd was > 4 mM (inactive).
For `O=C(O)CN1CCN(C2CCCC2)CC1`, the Kd was > 4 mM (inactive).
`O=C1NC(=O)C(c2ccccc2)C(=O)N1` was tested, and the Kd was > 4 mM (inactive).
With `COc1ccc(-c2cc(=O)c3ccccc3o2)cc1` the Kd was > 4 mM (inactive).
With `COc1cc2nc[nH]c(=O)c2cc1OC` the Kd was > 4 mM (inactive).
In the case of `CCNS(=O)(=O)c1cc(Br)ccc1OC`, the Kd is reported as > 4 mM (inactive).
In the case of `C=C1C2CC[C@@]3(C)[C@H](c4ccoc4)OC(=O)C[C@]13O[C@H]1CC(=O)C(C)(C)[C@H](C(OC(C)=O)C(=O)OC)[C@@]21C` (some centres undefined), the Kd is reported as > 4 mM (inactive).
With `COC(=O)c1c(C)c2c(c(C)c1O)OC(=O)c1c(C)c(Cl)c(O)c(Cl)c1O2` the Kd was > 4 mM (inactive).
For `CC(=O)N1CCN(c2ccc(N)cc2)CC1`, the Kd was > 4 mM (inactive).
With `O=C(O)Cc1n[nH]c(=O)c2ccccc12` the Kd was > 4 mM (inactive).
For `CCOC(=O)c1csc(C2COc3ccccc3O2)n1` (centres undefined), the Kd was > 4 mM (inactive).
In the case of `C=C[C@@H](C1=CC(=O)C(OC)=C(OC)C1=O)c1ccccc1`, the Kd is reported as > 4 mM (inactive).
`CC(=O)Nc1cc(N2C(=O)C=CC2=O)ccc1Cl` was tested, and the Kd was > 4 mM (inactive).
In the case of `C/C=C(\C)C(=O)O[C@@H]1c2c(ccc3ccc(=O)oc23)OC(C)(C)[C@@H]1OC(C)=O`, the Kd is reported as > 4 mM (inactive).
`Oc1ccccc1-c1nnco1` was tested, and the Kd was > 4 mM (inactive).
For `CSc1n[nH]c(NCc2cccs2)n1`, the Kd was > 4 mM (inactive).
With `Cc1nn2c(-c3ccco3)nnc2c2ccccc12` the Kd was > 4 mM (inactive).
`COc1ccc2c(c1)OC[C@@H](Cc1ccc(OC)c(OC)c1)[C@@H]2O` was tested, and the Kd was > 4 mM (inactive).
`Cn1c(=O)c2[nH]c(Nc3ccccc3)nc2n(C)c1=O` was tested, and the Kd was > 4 mM (inactive).
With `CC(=O)N1C(=S)NC(=O)/C1=C\c1cccnc1` the Kd was > 4 mM (inactive).
In the case of `Cc1cc(C(=O)Nc2nnc(C(F)(F)F)s2)no1`, the Kd is reported as > 4 mM (inactive).
For `O=c1[nH]c(=S)[nH]c2c1CCC2`, the Kd was > 4 mM (inactive).
For `O=CN1CCN(C2CC(=O)N(c3ccccc3)C2=O)CC1` (centres undefined), the Kd was > 4 mM (inactive).
For `N/C(=N/O)C1COc2ccccc2O1` (centres undefined), the Kd was > 4 mM (inactive).
With `COc1cc(OC)c2c(=O)c(O)c(-c3ccc(OC)c(OC)c3)oc2c1` the Kd was > 4 mM (inactive).
For `O=C1CCCC2C3CC(CN12)[C@@H]1CCCCN1C3` (some centres undefined), the Kd was > 4 mM (inactive).
With `O=C1NC(=S)NC(=O)C1=Cc1ccncc1` the Kd was > 4 mM (inactive).
In the case of `O=C1CNc2cc(C(=O)O)ccc2N1`, the Kd is reported as > 4 mM (inactive).
For `Brc1cccc(-c2nnco2)c1`, the Kd was > 4 mM (inactive).
In the case of `NC(=O)CSCc1c(Cl)cccc1Cl`, the Kd is reported as > 4 mM (inactive).
For `Cc1cc(SCCF)n2ncnc2n1`, the Kd was > 4 mM (inactive).
For `Cc1cc(C(=O)Nc2sc3c(c2C#N)CCC3)no1`, the Kd was > 4 mM (inactive).
